# Results as given in US7932266B2, “Isoquinoline derivatives as calpain inhibitors” (Consejo Superior de Investigaciones Cientificas, priority 2004, dated 2011).
# pIC50: −log10 of the molar value.
# Columns and labels:
# calpain = assay: Calpain inhibition, first results on earlier isoquinoline derivatives; format: biochemical; conditions: simple derivative of isoquinoline without peptide chain; applicant's first results
# [1] = target: T1, calpain I from porcine erythrocyte (Sus scrofa, UniProt P35750); assay: Enzyme activity test: inhibition of calpain (fluorimetric, BODIPY-FL casein substrate); format: biochemical; conditions: 7 inhibitor concentrations between 10 nM and 200 μM
# T1 construct: calpain I from porcine erythrocyte (Calbiochem, Cat No 208712) was used as enzyme; purchased Calbiochem 208712; host or cells: porcine erythrocyte (natural source)
# T1 sequence (P35750 1-714): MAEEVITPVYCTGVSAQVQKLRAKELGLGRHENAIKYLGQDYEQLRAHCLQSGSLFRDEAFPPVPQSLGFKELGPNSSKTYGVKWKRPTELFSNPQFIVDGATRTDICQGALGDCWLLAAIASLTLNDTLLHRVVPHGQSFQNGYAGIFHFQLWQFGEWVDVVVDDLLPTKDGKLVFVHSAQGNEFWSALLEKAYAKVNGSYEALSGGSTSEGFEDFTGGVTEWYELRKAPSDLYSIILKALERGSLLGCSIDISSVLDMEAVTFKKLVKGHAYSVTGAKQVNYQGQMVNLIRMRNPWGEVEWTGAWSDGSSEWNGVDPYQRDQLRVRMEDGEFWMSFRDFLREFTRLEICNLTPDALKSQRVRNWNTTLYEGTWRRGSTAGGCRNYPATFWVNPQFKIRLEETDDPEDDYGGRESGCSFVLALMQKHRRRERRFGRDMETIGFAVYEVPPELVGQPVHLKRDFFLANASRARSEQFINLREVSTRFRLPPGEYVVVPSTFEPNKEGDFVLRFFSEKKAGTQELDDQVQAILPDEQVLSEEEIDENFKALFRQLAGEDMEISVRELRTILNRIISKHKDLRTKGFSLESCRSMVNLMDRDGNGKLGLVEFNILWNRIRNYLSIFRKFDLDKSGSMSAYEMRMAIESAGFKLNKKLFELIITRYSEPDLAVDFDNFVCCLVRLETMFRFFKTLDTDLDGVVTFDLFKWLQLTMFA
# T1 sequence (P04574 1-266 partner): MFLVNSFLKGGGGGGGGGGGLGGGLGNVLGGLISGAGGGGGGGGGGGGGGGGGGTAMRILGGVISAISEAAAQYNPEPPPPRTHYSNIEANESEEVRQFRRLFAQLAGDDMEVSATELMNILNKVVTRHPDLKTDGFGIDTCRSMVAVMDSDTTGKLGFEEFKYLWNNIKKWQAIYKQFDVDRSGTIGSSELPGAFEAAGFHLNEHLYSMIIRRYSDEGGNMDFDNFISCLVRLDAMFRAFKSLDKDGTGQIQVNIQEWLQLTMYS
# Description: The capacity to inhibit calpain has been quantified in terms of the value of IC50, which is defined as the concentration of inhibitor that reduces the catalytic activity of an enzyme by half. The lower the value of IC50, the more powerful the inhibitor. Inhibition results on calpain I (the most relevant from a physiological point of view) of some compounds of the present invention are shown in table 1 and in FIG. 1. Given that calpain II, also known as milli-calpain, needs a greater amount of Ca^2+ for activation, it might not possibly have such a relevant physiological role since such a concentration of Ca^2+ would cause cell death before the milli-calpain could become activated. For this reason, the inhibition tests have been performed for calpain I, though they can be extrapolated for calpain II.
# The calpain inhibition capacity has been quantified in terms of the value of IC50, which is defined as the concentration of inhibitor that reduces the catalytic activity of an enzyme by half. The lower the value of IC50, the more powerful the inhibitor. Inhibition results on calpain I (the most relevant from a physiological point of view) of some compounds of the present invention are shown in table 1 and in FIG. 1.
# The experiments were conducted spectrofluorimetrically using a Spectrofluor Tecan Corp 93382 spectrofluorimeter, exciting at […] and measuring at […]. Casein marked with BODIPY-FL® (Molecular Probes) was used as substrate and calpain I from porcine erythrocyte (Calbiochem, Cat No 208712) was used as enzyme. The freeze-dried substrate is component A of the protease assay kit EnzChek® green fluorescence from Molecular Probes (reference # E-6638); component B, known as 20× digestion buffer, contains 13 mL of 200 mM Tris-HCl, pH 7.8 and 2 mM sodium azide. The commercial calpain I that was used has a concentration of 1 mg in 1 mL of aqueous solution (the solution is 20 mM imidazol-HCl, pH 6.8, 1 mM EDTA, 1 mM EGTA, 5 mM β-mercaptoethanol, containing 30% glycerine).
# 2.5 mL of 20× digestion buffer (component B of the kit from Molecular Probes) was diluted with water to a total volume of 50 mL.
# 200 μg of freeze-dried substrate (component A of the kit from Molecular Probes) was dissolved in 200 μL of phosphate saline buffer. This solution was decanted into a graduated flask and diluted with the digestion solution to a total volume of 40 mL.
# 20 μL of commercial solution of calpain was diluted with the digestion solution to a total volume of 200 μL.
# The inhibitor was dissolved in DMSO. Each inhibitor was assayed at 7 different concentrations between 10 nM and 200 μM.
# All the data were obtained measuring the variation in fluorescence with time. The use of a multi-cell device and Eppendorf multi-channel pipettes permitted measurement of the variation in fluorescence in up to 64 experiments. In this way, the control experiment and the experiments with the different concentrations of inhibitor was carried out in the same set of measurements. All the experiments were conducted twice.
# The control experiment was carried out mixing 180 μL of casein solution and 5 μL of calpain solution. The reaction was initiated by the addition of 10 μL of a 50 μM solution of CaCl2 in water, and the fluorescence was measured from the moment of the addition of Ca^2+ (time=0) and for 250-300 seconds (measuring during 20 kinetic cycles). The variation in fluorescence (ΔF) was represented against time (t). In order to test the effect of DMSO on enzyme activity, additional control experiments were conducted adding DMSO (in the quantities used in the experiments with the inhibitors), with the same result being obtained as in the control experiment.
# 180 μL of casein solution, 5 μL of calpain solution and 5 μL of inhibitor solution (of variable concentration) were mixed together. […]
melting point [°C],pIC50 [1],SMILES,activity as calpain inhibitor (calpain)
,,COC(=O)/C=C1/c2ccccc2C(=O)N[C@H]1C(C)C [Compound 3],not calpain inhibitors
110 to 113,4.77,"CC[C@H](C)[C@@H]1NC(=O)c2ccccc2/C1=C/C(=O)Nc1ccccc1-c1ccccc1NC(=O)[C@@H](N)C(C)C [Compound 22, (S,S,S,Z)-2-amino-N-{2′-[2-(3-sec-butyl-1-oxo-2,3-dihydro-1H-isoquinolin-4-yliden)-acetylamino]-biphenyl-2-yl}-3-methyl-butyramide]",
151 to 154,6.80,"CC[C@H](C)[C@H](NC(=O)/C=C1/c2ccccc2C(=O)N[C@H]1[C@@H](C)CC)C(=O)N[C@H](C(=O)N[C@H](C(=O)OC)[C@@H](C)CC)[C@@H](C)CC [Compound 26, methyl (S,S,S,S,S,S,S,S,S,Z)-2-(2-{2-[2-(3-sec-butyl-1-oxo-2,3-dihydro-1H-isoquinolin-4-yliden)-acetylamino]-3-methyl-pentanoylamino}-3-methyl-pentanoylamino)-3-methyl-pentanoate]",
174 to 176,6.20,"CC[C@H](C)[C@@H]1NC(=O)c2ccccc2/C1=C/C(=O)N[C@H](C(=O)N[C@@H](Cc1ccccc1)C(=O)OC)C(C)C [Compound 27, methyl (S,S,S,S,Z)-2-{2-[2-(3-sec-butyl-1-oxo-2,3-dihydro-1H-isoquinolin-4-yliden)-acetylamino]-3-methyl-butirylamino}-3-phenyl-propionate]",
50 to 53,4.42,"CC[C@H](C)[C@@H]1NC(=S)c2ccccc2/C1=C/C(=O)OC [Compound 28, methyl (S,S,Z)-(3-sec-butyl-1-thioxo-2,3-dihydro-1H-isoquinolin-4-yliden)-acetate]",
